# Legend:
# [1] = solubility and compatibility of clobazam in a variety of excipients; type: physicochemical
# Procedure: Solubility and compatibility of clobazam were tested in a variety of excipients according to the following functions: (1) alcohols; (2) emollients/oils; (3) esters; (4) fatty acids; (5) fatty acid esters; (6) fatty alcohols; (7) solubilizers; (8) solvents; and (9) surfactants.
# [2] = system: isolated human cadaver epidermis; assay: flux through skin of EVA/PIB multilaminate formulations; type: in vitro ADME
# From the text: In certain embodiments, the adhesive composition contains the HMW and LMW PIB in weight ratios (HMW PIB: LMW PIB) in the range of about 3-40:97-60, in the range of about 5-25:95-75 and in the range of about 10-20:90-80. The ratio of HMW PIE to LMW PIE that provides an optimal adhesive for a specific drug agent will be dependent upon the identity and concentration of agent being delivered. As an example, in one effective embodiment the PIB adhesive includes 5 wt % HMW PIB material (such as OPPANOL L80, LlOO, and L 140 from BASF) and 95 wt % LMW PIB material (Such as OPPANOL BlO, BI 1, B12, and B13 from BASF).
# Optionally, modification of flux of the drug through the PIB can be effected by incorporating in the adhesive material such as micronized, crosslinked polyvinylpyrrolidone (PVP), such as CROSPOVIDONE (Kollidon CL-CY from BASF typically with bulk density between 0.2-0.3 g/cm3 and particle size D90 of 10-20 micron). Such PVP improves the permeability of clobazam material through the PIB layer.
# Varying the amounts of CROSPOVIDONE in the PIB adhesive would result in fine-tuning the flux of clobazam to desired levels. For example, multilaminate formulations containing different PVP amounts were tested for the effect of such variation on flux through skin. The multilaminate formulations contained 35 wt % of clobazam base in EVA40, an EVA12 as tie layer and PIB adhesive (5:95 L100:B12 PIB) with 12 wt % or 18 wt % PVP were tested. […] A formulation containing 30 wt % clobazam base and 15 wt % PVP was also tested. The flux of clobazam formulation from this formulation was 6.3μg/(cm^2 h). […] PIB polymers are available commercially, e.g., under the tradename VISTANEX™ from Exxon Chemical. The amount of PVP in the resulting adhesive can be about 1 wt % to 30 wt %, about 5 wt % to 25 wt %, about 8 wt % to 20 wt %.
# Transdermal flux can be measured with a standard procedure using Franz cells or using an array of formulations. Flux experiments were done on isolated human cadaver epidermis. With Franz cells, in each Franz diffusion cell a disc of epidermis is placed on the receptor compartment. A transdermal delivery system is placed over the diffusion area (1.98 cm^2) in the center of the receptor. The donor compartment is then added and clamped to the assembly. At time 0, receptor solution (between […] and 24 ml, exactly measured) is added into the receptor compartment and the cell maintained at 35° C. This temperature yields a skin surface temperature of 30-32° C. Samples of the receptor compartment are taken periodically to determine the flux through skin and analyzed by HPLC. An alternative way to test flux is to use an array of patches. In testing flux with an array of transdermal miniature patches, formulations are prepared by mixing stock solutions of each of the mixture components of formulation in organic solvents (about 15 wt % solids), followed by a mixing process. The mixtures are then aliquoted onto arrays as 4-mm diameter drops and allowed to dry, leaving behind solid samples or “dots.” (i.e., mini-patches). The miniature patches in the arrays are then tested individually for flux through skin using a permeation array, whose principle of drug flux from a patch formulation through epidermis to a compartment of receptor medium is similar to that of Franz cells (an array of miniature cells). […] Receptor fluid is auto-sampled from each of the permeation wells at regular intervals and then measured by HPLC to determine the flux of the drug.
# [3] = cited from earlier work
structure (smiles),measurement,setting,value
"CN1C(=O)CC(=O)N(c2ccccc2)c2cc(Cl)ccc21 [clobazam, 7-Chloro-1-methyl-5-phenyl-1,5-dihydro benzo[b][1,4]diazepine-2,4-dione]",solubility among various alcohols,[1]; in 4-allyl-2-ethoxyphenol,good solubility
same,"solubility among various surfactants, polymers and oils",[1]; in Caprylocaproyl polyoxyl-8 glycerides and transcutol P,some solubility
same,solubility in solvents,"[1]; in DCM, chloroform, DMA, DMI, DMSO and NMP",good solubility
same,solubility among various fatty acids and fatty acid esters,"[1]; in methyl L-lactate, levulinic acid and ethyl levulinate",good solubility
same,average clobazam base flux,[2]; 5:95 L100:B12 PIB adhesive with 20 wt % CROSPOVIDONE,33.3 μg/(cm^2-h)
same,flux,"[2]; 35 wt % clobazam base in EVA40, EVA12 tie layer, PIB adhesive (5:95 L100:B12) with 12 wt % PVP",5.4 μg/(cm^2 h)
same,flux,"[2]; 35 wt % clobazam base in EVA40, EVA12 tie layer, PIB adhesive (5:95 L100:B12) with 18 wt % PVP",7.5 μg/(cm^2 h)
same,clobazam base average flux,"[2]; clobazam 35 wt % in EVA40 drug layer 4-7 mil, PIB adhesive 5 wt % HMW / 95 wt % LMW, 2-3 mil",5.5 μg/cm^2-h
same,flux,[2]; formulation with 30 wt % clobazam base and 15 wt % PVP,6.3 μg/(cm^2 h)
same,solubility in water,[3]; water at 25° C.,70 microgram/ml
same,water Solubility,[3]; water,164 µg/mL
